Reference: patent EP4806898A1, “HETEROARYL DERIVATIVE COMPOUND AND USE THEREOF” (Voronoi Inc., priority 2023, dated 2025)

Legend:
recombinant USP1 protein = target: T1, recombinant USP1 protein (Homo sapiens, UniProt O94782, DEL125-138/DEL229-408/DEL608-737); assay: Binding affinity to recombinant USP1 protein by differential scanning fluorimetry; settings: compound 100 µM; 0.03 mg/mL USP1 (Δ1-66, Δ125-138, Δ229-408, Δ608-737); Tm with compound minus Tm with DMSO; read-out: ΔTm (°C)
T1 sequence (O94782 with tags, fused parts or gaps DEL125-138/DEL229-408/DEL608-737): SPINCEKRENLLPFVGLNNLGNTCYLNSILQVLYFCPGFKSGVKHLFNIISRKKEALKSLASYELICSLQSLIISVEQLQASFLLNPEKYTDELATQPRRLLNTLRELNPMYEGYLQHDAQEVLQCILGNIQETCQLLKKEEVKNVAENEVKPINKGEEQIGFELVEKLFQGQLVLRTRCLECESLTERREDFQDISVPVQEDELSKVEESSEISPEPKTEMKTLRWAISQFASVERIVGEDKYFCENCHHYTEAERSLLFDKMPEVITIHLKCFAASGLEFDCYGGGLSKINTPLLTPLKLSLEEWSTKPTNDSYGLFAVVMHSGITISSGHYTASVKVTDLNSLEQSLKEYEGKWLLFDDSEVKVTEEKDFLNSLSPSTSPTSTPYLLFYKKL
Summary of the method: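 USP1 (Δ1-66, Δ125-138, Δ229-408, Δ608-737) at 0.03 mg/mL with dye in 50 mM Tris-HCl pH 8.0, 150 mM NaCl, 2% glycerol, 1 mM DTT; compounds at 100 µM final. Tm read on real-time PCR instrument; ΔTm = Tm with compound minus Tm with DMSO.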

UWB1.289 cells = assay: Cell proliferation inhibitory activity in BRCA1/2-mutant or HRD-positive cells (Cell Titer-Glo); assay type: cell-based; settings: UWB1289; UWB1.289 cells, 144 hours after compound treatment, Cell Titer-Glo, 1.5 nM to 10 µM; read-out: GI50 UWB1.289 BRCA1 mut
Summary of the method: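 UWB1.289 cells (1,000/well) in 50% MEBM/50% RPMI1640 exposed to […], final 1.5 nM to 10 µM, for 144 h at 37 °C. Viable cells measured by CellTiter-Glo luminescence; GI50 calculated.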

SMILES | ΔTm at 100 µM (recombinant USP1 protein) | GI50 (UWB1.289 cells)
CNC(=O)c1cc2cnc(-c3c(OC)ncnc3C3CC3)nc2n1Cc1ccc(-c2nc(C(F)(F)F)cn2C)cc1 [Example 43, 2-(4-cyclopropyl-6-methoxypyrimidin-5-yl)-N-methyl-7-(4-(1-methyl-4-(trifluoromethyl)-1H-imidazol-2-yl)benzyl)-7H-pyrrolo[2,3-d]pyrimidine-6-carboxamide] | > 5 °C | < 0.1 µM
COC(=O)CNC(=O)c1cc2cnc(-c3c(OC)ncnc3C3CC3)nc2n1Cc1ccc(-c2nc(C(F)(F)F)cn2C(C)C)cc1 [Example 45, methyl (2-(4-cyclopropyl-6-methoxypyrimid in-5-yl)-7-(4-(1-isopropyl-4-(trifluoromethyl)-1H-imidazol-2-yl)benzyl)-7H-pyrrolo[2,3-d]pyrimidine-6-carbonyl)glyci nate] | > 5 °C | < 0.1 µM
COc1ncnc(C2CC2)c1-c1ncc2cc(C(=O)NCCN3CCCC3)n(Cc3ccc(-c4nc(C(F)(F)F)cn4C(C)C)cc3)c2n1 [Example 47, 2-(4-cyclopropyl-6-methoxypyrimidin-5-yl)-7-(4-(1-isopropyl-4-(trifluoromethyl)-1H-imidazol-2-yl)benzyl)-N-(2-(pyrrolidin-1-yl)ethyl)-7H-pyrrolo[2,3-d]pyrimidine-6-carboxamide] | > 5 °C | < 0.1 µM
COc1ncnc(C2CC2)c1-c1ncc2cc(C(=O)NC(C)C)n(Cc3ccc(-c4nc(C(F)(F)F)cn4C(C)C)cc3)c2n1 [Example 48, 2-(4-cyclopropyl-6-methoxypyrimidin-5-yl)-N-isopropyl-7-(4-(1-isopropyl-4-(trifluoromethyl)-1H-imidazol-2-yl)benzyl)-7H-pyrrolo[2,3-d]pyrimidine-6-carboxamide] | > 5 °C | < 0.1 µM
COc1ncnc(C2CC2)c1-c1ncc2cc(C(=O)NCc3ccccc3)n(Cc3ccc(-c4nc(C(F)(F)F)cn4C(C)C)cc3)c2n1 [Example 49, N-benzyl-2-(4-cyclopropyl-6-methoxypyrimidin-5-yl)-7-(4-(1-isopropyl-4-(trifluoromethyl)-1H-imidazol-2-yl)benzyl)-7H-pyrrolo[2,3-d]pyrimidine-6-carboxamide] | > 5 °C | 0.1 to 0.5 µM
COc1ncnc(C2CC2)c1-c1ncc2cc(C(=O)N3CC[C@H](N(C)C)C3)n(Cc3ccc(-c4nc(C(F)(F)F)cn4C(C)C)cc3)c2n1 [Example 50, (S)-(2-(4-cyclopropyl-6-methoxypyrimidin-5-yl)-7-(4-(1-isopropyl-4-(trifluoromethyl)-1H-imidazol-2-yl)benzyl)-7H-pyrrolo[2,3-d]pyrimidin-6-yl) (3-(dimethylamino)pyrrolidin-1-yl)methanone] | > 5 °C | 0.1 to 0.5 µM
COc1ncnc(C2CC2)c1-c1ncc2cc(C(=O)N3CCCC3)n(Cc3ccc(-c4nc(C(F)(F)F)cn4C(C)C)cc3)c2n1 [Example 51, (2-(4-cyclopropyl-6-methoxypyrimid in-5-yl)-7-(4-(1-isopropyl-4-(trifluoromethyl)-1H-imidazol-2-yl)benzyl)-7H-pyrrolo[2,3-d]pyrimidin-6-yl)(pyrrolidin-1-yl)methanone] | > 5 °C | < 0.1 µM
CCN(CC)CCNC(=O)c1cc2cnc(-c3c(OC)ncnc3C3CC3)nc2n1Cc1ccc(-c2nc(C(F)(F)F)cn2C(C)C)cc1 [Example 52, 2-(4-cyclopropyl-6-methoxypyrimidin-5-yl)-N-(2-(diethylamino)ethyl)-7-(4-(1-isopropyl-4-(trifluoromethyl)-1H-imidazol-2-yl)benzyl)-7H-pyrrolo[2,3-d]pyrimidine-6-carboxamide] | > 5 °C | 0.1 to 0.5 µM
COc1ncnc(C2CC2)c1-c1ncc2cc(C(=O)N3CC(N(C)C)C3)n(Cc3ccc(-c4nc(C(F)(F)F)cn4C(C)C)cc3)c2n1 [Example 53, (2-(4-cyclopropyl-6-methoxypyrimid in-5-yl)-7-(4-(1-isopropyl-4-(trifluoromethyl)-1H-imidazol-2-yl)benzyl)-7H-pyrrolo[2,3-d]pyrimidin-6-yl) (3-(dimethylamino)azetidin-1-yl)methanone] | > 5 °C | < 0.1 µM
COc1ncnc(C2CC2)c1-c1ncc2cc(C(=O)N3CCN4CCCC4C3)n(Cc3ccc(-c4nc(C(F)(F)F)cn4C(C)C)cc3)c2n1 (centres unmarked) [Example 55, (2-(4-cyclopropyl-6-methoxypyrimid in-5-yl)-7-(4-(1-isopropyl-4-(trifluoromethyl)-1H-imidazol-2-yl)benzyl)-7H-pyrrolo[2,3-d]pyrimidin-6-yl) (hexahydrop yrrolo[1,2-a]pyrazin-2 (1H) - yl)methanone] | > 5 °C | 0.1 to 0.5 µM
COc1ncnc(C2CC2)c1-c1ncc2cc(C(=O)N3CCOC4(CCC4)C3)n(Cc3ccc(-c4nc(C(F)(F)F)cn4C(C)C)cc3)c2n1 [Example 56, (2-(4-cyclopropyl-6-methoxypyrimid in-5-yl)-7-(4-(1-isopropyl-4-(trifluoromethyl)-1H-imidazol-2-yl)benzyl)-7H-pyrrolo[2,3-d]pyrimidin-6-yl) (5-oxa-8-azaspiro[3.5]nonan-8-yl)methanone] | > 5 °C | 0.1 to 0.5 µM
CCN1CCN(C(=O)c2cc3cnc(-c4c(OC)ncnc4C4CC4)nc3n2Cc2ccc(-c3nc(C(F)(F)F)cn3C(C)C)cc2)CC1 [Example 57, (2-(4-cyclopropyl-6-methoxypyrimid in-5-yl)-7-(4-(1-isopropyl-4-(trifluoromethyl)-1H-imidazol-2-yl)benzyl)-7H-pyrrolo[2,3-d]pyrimidin-6-yl) (4-ethylpiperazin-1-yl)methanone] | > 5 °C | < 0.1 µM
COc1ncnc(C2CC2)c1-c1ncc2cc(C(=O)NC[C@H]3CCCN3)n(Cc3ccc(-c4nc(C(F)(F)F)cn4C(C)C)cc3)c2n1 [Example 58, (R) -2-(4-cyclopropyl-6-methoxypyrimidin-5-yl)-7-(4-(1-isopropyl-4-(trifluoromethyl)-1H-imidazol-2-yl)benzyl)-N-(pyrrolidin-2-ylmethyl)-7H-pyrrolo[2,3-d]pyrimidine-6-carboxamide] | > 5 °C | < 0.1 µM
C#CCNC(=O)c1cc2cnc(-c3c(OC)ncnc3C3CC3)nc2n1Cc1ccc(-c2nc(C(F)(F)F)cn2C(C)C)cc1 [Example 60, 2-(4-cyclopropyl-6-methoxypyrimidin-5-yl)-7-(4-(1-isopropyl-4-(trifluoromethyl)-1H-imidazol-2-yl)benzyl)-N-(prop-2-yn-1-yl)-7H-pyrrolo[2,3-d]pyrimidine-6-carboxamide] | > 5 °C | < 0.1 µM
COc1ncnc(C2CC2)c1-c1ncc2cc(C(=O)NCC(C)(C)O)n(Cc3ccc(-c4nc(C(F)(F)F)cn4C(C)C)cc3)c2n1 [Example 61, 2-(4-cyclopropyl-6-methoxypyrimidin-5-yl)-N-(2-hydroxy-2-methylpropyl)-7-(4-(1-isopropyl-4-(trifluoromethyl)-1H-imidazol-2-yl)benzyl)-7H-pyrrolo[2,3-d]pyrimidine-6-carboxamide] | > 5 °C | < 0.1 µM
C=CCCNC(=O)c1cc2cnc(-c3c(OC)ncnc3C3CC3)nc2n1Cc1ccc(-c2nc(C(F)(F)F)cn2C(C)C)cc1 [Example 64, N-(but-3-en-1-yl)-2-(4-cyclopropyl-6-methoxypyrimidin-5-yl)-7-(4-(1-isopropyl-4-(trifluoromethyl)-1H-imidazol-2-yl)benzyl)-7H-pyrrolo[2,3-d]pyrimidine-6-carboxamide] | > 5 °C | 0.1 to 0.5 µM
COc1ncnc(C2CC2)c1-c1ncc2cc(C(=O)N3C[C@H]4C[C@@H]3CO4)n(Cc3ccc(-c4nc(C(F)(F)F)cn4C(C)C)cc3)c2n1 [Example 65, ((1R,4R)-2-oxa-5-azabicyclo[2.2 .1]heptan-5-yl)(2-(4-cyclopropyl-6-methoxypyrimidin-5-yl)-7-(4-(1-isopropyl-4-(trifluoromethyl)-1H-imidazol-2-yl)benzyl)-7H-pyrrolo[2,3-d]pyrimidin-6-yl)methanone] | > 5 °C | 0.1 to 0.5 µM
COc1ncnc(C2CC2)c1-c1ncc2cc(C(=O)NC[C@@H]3CCO3)n(Cc3ccc(-c4nc(C(F)(F)F)cn4C(C)C)cc3)c2n1 [Example 66, (S)-2-(4-cyclopropyl-6-methoxypyrimidin-5-yl)-7-(4-(1-isopropyl-4-(trifluoromethyl)-1H-imidazol-2-yl)benzyl)-N-(oxetan-2-ylmethyl)-7H-pyrrolo[2,3-d]pyrimidine-6-carboxamide] | > 5 °C | < 0.1 µM
COc1ncnc(C2CC2)c1-c1ncc2cc(C(=O)N3CCCC(O)C3)n(Cc3ccc(-c4nc(C(F)(F)F)cn4C(C)C)cc3)c2n1 (centres unmarked) [Example 67, (2-(4-cyclopropyl-6-methoxypyrimid in-5-yl)-7-(4-(1-isopropyl-4-(trifluoromethyl)-1H-imidazol-2-yl)benzyl)-7H-pyrrolo[2,3-d]pyrimidin-6-yl) (3-hydroxypiperid in-1-yl)methanone] | > 5 °C | < 0.1 µM
